Source: patent US20230293526A1, “METHOD FOR TREATING CANCER WITH A REVERSE TRANSCRIPTASE INHIBITOR” (PrimeFour Therapeutics, Inc., priority 2020, published 2023)

Legend:
Assay in all cases: Cell proliferation CellTiterGlo Ex.2
Type in all cases: cell-based
[1] = tested on: RERF-LC-Ad2; settings: RERF-LC-Ad2 (Lung), 72 h
Method in brief: (§1)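 Cells were seeded, incubated overnight at 37 °C, then dosed at 10, 3, 1, 0.3, 0.1, 0.03, 0.01 and 0.003 μM for 72 h (5% or 10% CO2). CellTiterGlo luminescence gave percent viability relative to 0.10% DMSO (high) and 10 μM staurosporine (low) controls.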

[2] = tested on: MCAS; settings: MCAS (Ovary), 72 h
Method in brief: as §1

[3] = tested on: A2780; settings: Homo sapiens; A2780 (Ovary), 72 h
Method in brief: as §1

[4] = tested on: HCC38; settings: Homo sapiens; HCC38 (Breast), 72 h
Method in brief: as §1

[5] = tested on: Kato III; settings: Homo sapiens; Kato III (Stomach), 72 h
Method in brief: as §1

[6] = tested on: U251MG; settings: Homo sapiens, U-251; U251MG (Brain), 72 h
Method in brief: as §1

[7] = tested on: RPMI 8226; settings: Homo sapiens; RPMI 8226 (Blood), 72 h
Method in brief: as §1

[8] = tested on: PC3; settings: Homo sapiens, PC-3; PC3 (Prostate), 72 h
Method in brief: as §1

[9] = tested on: M07e; settings: M-07e; M07e (Blood), 72 h
Method in brief: as §1

[10] = tested on: Detroit562; settings: Homo sapiens, Detroit 562; Detroit562 (Head/Neck), 72 h
Method in brief: as §1

[11] = tested on: SJSA-1; settings: Homo sapiens; SJSA-1 (Bone), 72 h
Method in brief: as §1

[12] = tested on: LOU-NH91; settings: LOU-NH91 (Lung), 72 h
Method in brief: as §1

[13] = tested on: DLD-1; settings: Homo sapiens; DLD-1 (Colon), 72 h
Method in brief: as §1

[14] = tested on: U118MG; settings: Homo sapiens, U-118-MG; U118MG (Brain), 72 h
Method in brief: as §1

[15] = tested on: SK-MEL-3; settings: Homo sapiens, SK-MEL3; SK-MEL-3 (Skin), 72 h
Method in brief: as §1

[16] = tested on: NCI-H1048; settings: Homo sapiens; NCI-H1048 (Lung), 72 h
Method in brief: as §1

[17] = tested on: Hs 746T; settings: Homo sapiens, Hs746T; Hs 746T (Stomach), 72 h
Method in brief: as §1

[18] = tested on: J82; settings: Homo sapiens; J82 (Bladder), 72 h
Method in brief: as §1

[19] = tested on: ZR-75-1; settings: Homo sapiens; ZR-75-1 (Breast), 72 h
Method in brief: as §1

[20] = tested on: OVCAR-3; settings: Homo sapiens; OVCAR-3 (Ovary), 72 h
Method in brief: as §1

[21] = tested on: NCI-H441; settings: Homo sapiens; NCI-H441 (Lung), 72 h
Method in brief: as §1

[22] = tested on: EFM-19; settings: Homo sapiens; EFM-19 (Breast), 72 h
Method in brief: as §1

[23] = tested on: RKO; settings: Homo sapiens; RKO (Colon), 72 h
Method in brief: as §1

[24] = tested on: SK-N-MC; settings: Homo sapiens; SK-N-MC (Brain), 72 h
Method in brief: as §1

[25] = tested on: H4; settings: H4 (Brain), 72 h
Method in brief: as §1

[26] = tested on: NCI-H1838; settings: Homo sapiens; NCI-H1838 (Lung), 72 h
Method in brief: as §1

[27] = tested on: EPLC-272H; settings: Homo sapiens; EPLC-272H (Lung), 72 h
Method in brief: as §1

[28] = tested on: SCLC-21H; settings: Homo sapiens; SCLC-21H (Lung), 72 h
Method in brief: as §1

[29] = tested on: HEC-1-A; settings: Homo sapiens; HEC-1-A (Endometrium), 72 h
Method in brief: as §1

[30] = tested on: A172; settings: Homo sapiens, A 172; A172 (Brain), 72 h
Method in brief: as §1

[31] = tested on: BEN; settings: BEN (Lung), 72 h
Method in brief: as §1

[32] = tested on: AsPC-1; settings: Homo sapiens, ASPC1; AsPC-1 (Pancreas), 72 h
Method in brief: as §1

[33] = tested on: MCF-7; settings: Homo sapiens, MCF7; MCF-7 (Breast), 72 h
Method in brief: as §1

For `C#C[C@]1(CO)O[C@@H](n2cnc3c(=O)[nH]c(N)nc32)C[C@@H]1O` [compound 13], the IC50 [1] was 2.58 µM, the IC50 [2] was over 10 µM and the IC50 [3] was 4.58 µM. The IC50 [4] was 6.37 µM, the IC50 [5] was 4.86 µM and the IC50 [6] was over 10 µM. The IC50 [7] was over 10 µM, the IC50 [8] was 4.01 µM and the IC50 [9] was 4.07 µM. It also gave an IC50 [10] of 4.79 µM, an IC50 [11] of 6.44 µM and an IC50 [12] of over 10 µM. The IC50 [13] was over 10 µM, the IC50 [14] was 5.74 µM and the IC50 [15] was over 10 µM. For the same compound, the IC50 [16] was 2.49 µM, the IC50 [17] was 5.39 µM and the IC50 [18] was 5.73 µM. It also gave an IC50 [19] of over 10 µM, an IC50 [20] of 1.16 µM and an IC50 [21] of 3.64 µM. It also gave an IC50 [22] of 2.65 µM, an IC50 [23] of 4.51 µM and an IC50 [24] of 3.19 µM. The IC50 [25] was over 10 µM, the IC50 [26] was 7.53 µM and the IC50 [27] was 6.63 µM. It also gave an IC50 [28] of 6.78 µM, an IC50 [29] of over 10 µM and an IC50 [30] of over 10 µM. For the same compound, the IC50 [31] was over 10 µM, the IC50 [32] was over 10 µM and the IC50 [33] was over 10 µM.
